Drawing on ChEMBL document CHEMBL3526048, “In vitro metabolism of rivoglitazone, a novel peroxisome proliferator-activated receptor γ agonist, in rat, monkey, and human liver microsomes and freshly isolated hepatocytes” (Drug Metab Dispos, 2011), this text covers Drug metabolism for 1 molecule.

Series [1] concerns the target Cytochrome P450 3A4 (Homo sapiens, UniProt P08684). The series can be described thus: Activity of human CYP3A4 expressed in microsomes isolated from baculovirus infected insect cell assessed as enzyme-mediated 3-(4-((6-methoxy-1-methyl-1H-benzo[d]imidazol-2-yl)methoxy)phenyl)-2-(methylthio)propanoic acid formation at 20 uM after 2 hrs by radio-HPLC/LC-MS/MS analysis in presence of NADPH-generating system/SAM and UDPGA/SAM. It counts as ADME.

The target of series [2] is T1, UDP-glucuronosyltransferase 1A3 (Homo sapiens, UniProt P35503).
T1 sequence (P35503 whole entry): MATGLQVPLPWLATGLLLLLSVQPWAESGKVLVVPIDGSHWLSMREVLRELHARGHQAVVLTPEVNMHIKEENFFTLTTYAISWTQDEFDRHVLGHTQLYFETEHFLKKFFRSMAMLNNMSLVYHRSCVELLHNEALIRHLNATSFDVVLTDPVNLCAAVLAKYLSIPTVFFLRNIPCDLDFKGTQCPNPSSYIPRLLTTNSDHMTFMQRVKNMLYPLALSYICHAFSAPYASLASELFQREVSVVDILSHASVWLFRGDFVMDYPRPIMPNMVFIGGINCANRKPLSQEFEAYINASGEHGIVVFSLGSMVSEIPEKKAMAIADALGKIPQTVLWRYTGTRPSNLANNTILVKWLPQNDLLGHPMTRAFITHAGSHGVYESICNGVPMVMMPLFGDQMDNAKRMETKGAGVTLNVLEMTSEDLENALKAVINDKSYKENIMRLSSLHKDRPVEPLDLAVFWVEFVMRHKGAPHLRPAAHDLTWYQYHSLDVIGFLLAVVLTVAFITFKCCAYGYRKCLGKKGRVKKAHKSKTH
The series can be described thus: Activity of human UGT1A3 expressed in microsomes isolated from baculovirus infected insect cell assessed as enzyme-mediated 5-(4-((6-methoxy-1H-benzo[d]imidazol-2-yl)methoxy)benzyl)thiazolidine-2,4-dione formation at 20 uM after 4 hrs by radio-HPLC/LC-MS/MS analysis in presence of NADPH-generating system and NADPH-generating system/SAM in presence of UDPGA and UDPGA/SAM. It counts as ADME.

The nature of series [3]: Drug metabolism in rat hepatocytes assessed as formation of 2-hydroxy-3-(4-((6-methoxy-1-methyl-1H-benzo[d]imidazol-2-yl)methoxy)phenyl)propanamide at 30 uM after 3 hrs by radio-HPLC/LC-MS/MS analysis in presence of NADPH-generating system and NADPH-generating system/SAM. It counts as ADME, cell-based, Hepatocyte.
In series [4] the test system is Liver microsome. As to the kind of experiment: Drug metabolism in Sprague-Dawley rat liver microsomes assessed as formation of 2-mercapto-3-(4-((6-methoxy-1-methyl-1H-benzo[d]imidazol-2-yl)methoxy)phenyl)propanoic acid at 20 uM after 2 to 4 hrs by radio-HPLC/LC-MS/MS analysis in presence of UDPGA, UDPGA/SAM and NADPH-generating system. It counts as ADME. For orientation: Liver microsomes are vesicles of endoplasmic reticulum, rich in cytochrome P450 enzymes.

Series [5] has as its system Liver microsome. The series can be described thus: Drug metabolism in Sprague-Dawley rat liver microsomes assessed as formation of 5-hydroxy-5-(4-((6-methoxy-1-methyl-1H-benzo[d]imidazol-2-yl)methoxy)benzyl)thiazolidine-2,4-dione at 20 uM after 2 hrs by radio-HPLC/LC-MS/MS analysis in presence of NADPH-generating system and NADPH-generating system/SAM. It counts as ADME.

Series [6] concerns the target T2, UDP-glucuronosyltransferase 2B7 (Homo sapiens, UniProt P16662).
T2 sequence (P16662 whole entry): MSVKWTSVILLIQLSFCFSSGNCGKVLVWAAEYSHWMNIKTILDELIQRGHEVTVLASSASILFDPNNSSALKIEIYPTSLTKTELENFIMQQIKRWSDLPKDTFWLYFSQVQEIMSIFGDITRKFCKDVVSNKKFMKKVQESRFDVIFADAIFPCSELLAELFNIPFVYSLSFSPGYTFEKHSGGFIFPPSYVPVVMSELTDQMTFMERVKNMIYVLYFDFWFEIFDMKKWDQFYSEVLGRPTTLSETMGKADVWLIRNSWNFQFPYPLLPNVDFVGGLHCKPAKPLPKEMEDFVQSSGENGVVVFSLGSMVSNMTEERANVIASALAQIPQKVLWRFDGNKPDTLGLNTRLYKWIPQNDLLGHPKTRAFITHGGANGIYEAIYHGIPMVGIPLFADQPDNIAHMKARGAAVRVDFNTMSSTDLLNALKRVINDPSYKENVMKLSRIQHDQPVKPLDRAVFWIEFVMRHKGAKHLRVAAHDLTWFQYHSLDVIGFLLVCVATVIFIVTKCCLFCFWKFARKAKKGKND
As to the kind of experiment: Activity of human UGT2B7 expressed in microsomes isolated from baculovirus infected insect cell assessed as enzyme-mediated 3-(4-((6-methoxy-1-methyl-1H-benzo[d]imidazol-2-yl)methoxy)phenyl)-2-(methylthio)propanamide formation at 20 uM after 4 hrs by radio-HPLC/LC-MS/MS analysis in presence of NADPH-generating system/SAM in presence of UDPGA and UDPGA/SAM. It is filed as ADME.

Series [7] deals with T3, UDP-glucuronosyltransferase 1A7 (Homo sapiens, UniProt Q9HAW7).
T3 sequence (Q9HAW7 whole entry): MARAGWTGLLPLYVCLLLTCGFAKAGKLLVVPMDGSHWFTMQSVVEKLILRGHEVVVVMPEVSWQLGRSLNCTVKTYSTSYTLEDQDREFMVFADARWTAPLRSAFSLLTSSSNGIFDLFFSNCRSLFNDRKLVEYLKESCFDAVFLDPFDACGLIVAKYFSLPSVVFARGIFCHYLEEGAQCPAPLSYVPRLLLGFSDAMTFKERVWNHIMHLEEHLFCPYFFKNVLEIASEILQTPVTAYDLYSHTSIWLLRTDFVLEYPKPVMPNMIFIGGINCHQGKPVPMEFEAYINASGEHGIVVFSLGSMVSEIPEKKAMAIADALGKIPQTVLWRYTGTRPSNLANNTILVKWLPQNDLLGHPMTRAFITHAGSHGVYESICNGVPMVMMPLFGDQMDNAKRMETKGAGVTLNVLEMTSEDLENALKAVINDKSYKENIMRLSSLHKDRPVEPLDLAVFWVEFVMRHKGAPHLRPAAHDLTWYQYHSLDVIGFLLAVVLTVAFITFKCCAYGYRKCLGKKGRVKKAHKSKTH
As to the kind of experiment: Activity of human UGT1A7 expressed in microsomes isolated from baculovirus infected insect cell assessed as enzyme-mediated (2S,3S,4S,5R,6R)-6-((1-carboxy-2-(4-((6-methoxy-1-methyl-1H-benzo[d]imidazol-2-yl)methoxy)phenyl)ethylthio)carbonylamino)-3,4,5-trihydroxytetrahydro-2H-pyran-2-carboxylic acid formation at 20 uM after 4 hrs by radio-HPLC/LC-MS/MS analysis in presence of UDPGA. It counts as ADME.

Cytochrome P450 3A4, sequence (P08684 whole entry): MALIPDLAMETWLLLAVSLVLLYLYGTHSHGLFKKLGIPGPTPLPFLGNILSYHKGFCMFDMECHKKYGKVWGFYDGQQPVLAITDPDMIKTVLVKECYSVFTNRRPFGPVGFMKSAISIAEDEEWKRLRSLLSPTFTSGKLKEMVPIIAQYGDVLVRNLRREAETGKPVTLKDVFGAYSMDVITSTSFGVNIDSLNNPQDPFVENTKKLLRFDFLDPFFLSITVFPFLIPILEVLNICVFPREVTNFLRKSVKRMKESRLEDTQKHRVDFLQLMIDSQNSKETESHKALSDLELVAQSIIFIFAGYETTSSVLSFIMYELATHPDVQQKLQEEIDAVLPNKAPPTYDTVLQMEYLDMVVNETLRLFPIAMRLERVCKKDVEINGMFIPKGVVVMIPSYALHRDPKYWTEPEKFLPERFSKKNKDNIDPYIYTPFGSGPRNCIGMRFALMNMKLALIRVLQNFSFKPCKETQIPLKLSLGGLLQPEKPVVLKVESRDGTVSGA

For the molecule `COc1ccc2nc(COc3ccc(C[14CH]4SC(=O)NC4=O)cc3)n(C)c2c1.Cl` (racemic), the Drug metabolism result in series [1] is recorded as “metabolite_not_detected”; in series [2], “metabolite_not_detected”; in series [3], “metabolite_not_detected”; in series [4], “metabolite_detected”; in series [5], “metabolite_detected”; in series [6], “metabolite_not_detected”. Moreover, the Drug metabolism result in series [7] was “metabolite_not_detected”.
